What was measured:
Hepatotoxicity [1] = tested on: Hepatotoxicity;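 on HepSE cholelithiasis: hepatic side effect score for cholelithiasis, drawn from the DILIps training data for predicting drug-induced liver injury; call rule not given here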;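 on HepSE elevated liver function tests: hepatic side effect score for raised liver function tests, as recorded in the DILIps training set used for predicting drug-induced liver injury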;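 on HepSE hepatic necrosis: score of hepatic side effects for hepatic necrosis, drawn from the training data of DILIps, a prediction system for drug-induced liver injury; call rule not given here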;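 on HepSE jaundice: Jaundice-related hepatic side-effect score drawn from the training data of the DILIps (drug-induced liver injury prediction system); call rule not given here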; on HepSE liver disease: call rule not given here;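 on HepSE liver function tests abnormal: hepatic side effect score taken from the DILIps (drug-induced liver injury prediction system) training data, here covering abnormal liver function test findings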
Hepatotoxicity [2] = tested on: Hepatotoxicity; remark: listed apart in the source;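 on HepSE cholelithiasis: hepatic side effect score for cholelithiasis, drawn from the DILIps training data for predicting drug-induced liver injury; call rule not given here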;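 on HepSE elevated liver function tests: hepatic side effect score for raised liver function tests, as recorded in the DILIps training set used for predicting drug-induced liver injury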;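 on HepSE hepatic necrosis: score of hepatic side effects for hepatic necrosis, drawn from the training data of DILIps, a prediction system for drug-induced liver injury; call rule not given here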;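 on HepSE jaundice: Jaundice-related hepatic side-effect score drawn from the training data of the DILIps (drug-induced liver injury prediction system); call rule not given here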; on HepSE liver disease: call rule not given here;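 on HepSE liver function tests abnormal: hepatic side effect score taken from the DILIps (drug-induced liver injury prediction system) training data, here covering abnormal liver function test findings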
Hepatotoxicity [3] = tested on: Hepatotoxicity; remark: listed apart in the source;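 on HepSE cholelithiasis: hepatic side effect score for cholelithiasis, drawn from the DILIps training data for predicting drug-induced liver injury; call rule not given here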;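 on HepSE elevated liver function tests: hepatic side effect score for raised liver function tests, as recorded in the DILIps training set used for predicting drug-induced liver injury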;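 on HepSE hepatic necrosis: score of hepatic side effects for hepatic necrosis, drawn from the training data of DILIps, a prediction system for drug-induced liver injury; call rule not given here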;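 on HepSE jaundice: Jaundice-related hepatic side-effect score drawn from the training data of the DILIps (drug-induced liver injury prediction system); call rule not given here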; on HepSE liver disease: call rule not given here;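 on HepSE liver function tests abnormal: hepatic side effect score taken from the DILIps (drug-induced liver injury prediction system) training data, here covering abnormal liver function test findings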
Hepatotoxicity [4] = tested on: Hepatotoxicity; remark: listed apart in the source;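 on HepSE cholelithiasis: hepatic side effect score for cholelithiasis, drawn from the DILIps training data for predicting drug-induced liver injury; call rule not given here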;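 on HepSE elevated liver function tests: hepatic side effect score for raised liver function tests, as recorded in the DILIps training set used for predicting drug-induced liver injury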;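 on HepSE hepatic necrosis: score of hepatic side effects for hepatic necrosis, drawn from the training data of DILIps, a prediction system for drug-induced liver injury; call rule not given here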;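 on HepSE jaundice: Jaundice-related hepatic side-effect score drawn from the training data of the DILIps (drug-induced liver injury prediction system); call rule not given here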; on HepSE liver disease: call rule not given here;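 on HepSE liver function tests abnormal: hepatic side effect score taken from the DILIps (drug-induced liver injury prediction system) training data, here covering abnormal liver function test findings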
Hepatotoxicity [5] = tested on: Hepatotoxicity; remark: listed apart in the source; on HepSE liver disease: call rule not given here
Hepatotoxicity [6] = tested on: Hepatotoxicity; remark: listed apart in the source; on HepSE liver disease: call rule not given here
Hepatotoxicity [7] = tested on: Hepatotoxicity; remark: listed apart in the source
Hepatotoxicity [8] = tested on: Hepatotoxicity; remark: listed apart in the source
Hepatotoxicity [9] = tested on: Hepatotoxicity; remark: listed apart in the source
Hepatotoxicity [10] = tested on: Hepatotoxicity; remark: listed apart in the source
Hepatotoxicity [11] = tested on: Hepatotoxicity; remark: listed apart in the source
Hepatotoxicity [12] = tested on: Hepatotoxicity; remark: listed apart in the source
Hepatotoxicity [13] = tested on: Hepatotoxicity; remark: listed apart in the source
Hepatotoxicity [14] = tested on: Hepatotoxicity; remark: listed apart in the source

Compound	HepSE_liver function tests abnormal (Hepatotoxicity [1])	HepSE_jaundice (Hepatotoxicity [2])	HepSE_elevated liver function tests (Hepatotoxicity [3])	HepSE_cholelithiasis (Hepatotoxicity [4])	HepSE_hepatic necrosis (Hepatotoxicity [5])	HepSE_liver fatty (Hepatotoxicity [6])	HepSE_liver disease (Hepatotoxicity [7])	HepSE_hepatic failure (Hepatotoxicity [8])	HepSE_Combined Scores (Hepatotoxicity [9])	HepSE_bilirubinemia (Hepatotoxicity [10])	HepSE_cholecystitis (Hepatotoxicity [11])	HepSE_hepatitis (Hepatotoxicity [12])	HepSE_hepatomegaly (Hepatotoxicity [13])	HepSE_cirrhosis (Hepatotoxicity [14])
CC(C)[C@@H]1NC(=O)[C@H](CCCCN)NC(=O)[C@@H](Cc2c[nH]c3ccccc23)NC(=O)[C@H](Cc2ccc(O)cc2)NC(=O)[C@@H](NC(=O)[C@H](N)Cc2ccc3ccccc3c2)CSSC[C@@H](C(=O)N[C@H](C(N)=O)[C@@H](C)O)NC1=O [LANREOTIDE]	0	0	0	1	0	0	0	0	4	1	1	0	1	0
C[C@@H]1C[C@H]2[C@@H]3CCC4=CC(=O)C=C[C@]4(C)[C@@]3(F)[C@@H](O)C[C@]2(C)[C@@]1(O)C(=O)CO [DEXAMETHASONE]	0	0	0	0	0	0	0	0	1	0	0	0	1	0
O=C1CN=C(c2ccccc2Cl)c2cc([N+](=O)[O-])ccc2N1 [CLONAZEPAM]	0	0	0	0	0	0	0	0	1	0	0	0	1	0
CN1C(CCl)Nc2cc(Cl)c(S(N)(=O)=O)cc2S1(=O)=O (stereo not drawn) [METHYCLOTHIAZIDE]	0	1	0	0	0	0	0	0	1	0	0	0	0	0
CCCCC(=O)N(Cc1ccc(-c2ccccc2-c2nnn[nH]2)cc1)[C@H](C(=O)O)C(C)C	0	0	0	0	0	0	0	0	1	0	0	1	0	0
CCCc1nc(C(C)(C)O)c(C(=O)OCc2oc(=O)oc2C)n1Cc1ccc(-c2ccccc2-c2nnn[nH]2)cc1 [OLMESARTAN MEDOXOMIL]	0	1	0	0	0	0	0	0	1	0	0	0	0	0
CN(C)c1cc(NC(=O)CNC(C)(C)C)c(O)c2c1C[C@H]1C[C@H]3[C@H](N(C)C)C(O)=C(C(N)=O)C(=O)[C@@]3(O)C(O)=C1C2=O [TIGECYCLINE]	1	1	0	0	0	0	0	1	4	1	0	0	0	0
NC[C@@H]1O[C@H](O[C@H]2[C@@H](O)[C@H](O[C@@H]3[C@@H](O)[C@H](N)C[C@H](N)[C@H]3O[C@H]3O[C@H](CO)[C@@H](O)[C@H](O)[C@H]3N)O[C@@H]2CO)[C@H](N)[C@@H](O)[C@@H]1O [PAROMOMYCIN]	0	0	0	0	0	0	0	0	0	0	0	0	0	0
CCS(=O)(=O)CCn1c([N+](=O)[O-])cnc1C [TINIDAZOLE]	0	0	0	0	0	0	0	0	0	0	0	0	0	0
PORFIMER SODIUM	0	1	0	0	0	0	0	0	1	0	0	0	0	0
OC[C@H]1O[C@@H](n2cnc3c2NC=NC[C@H]3O)C[C@@H]1O [PENTOSTATIN]	1	0	1	0	0	0	1	0	3	0	0	0	0	0
O=[N+]([O-])O[C@H]1CO[C@H]2[C@@H]1OC[C@H]2O[N+](=O)[O-] [ISOSORBIDE DINITRATE]	0	0	0	0	0	0	0	0	0	0	0	0	0	0
